Data as given in patent US8268751B2, “Combination of active substances with insecticidal properties” (Bayer Cropscience AG, priority 2003, dated 2012).

Experiments:
Type in all cases: in vivo
[1] = system: Phaedon cochleariae larvae; experiment: Phaedon cochleariae larvae test (cabbage leaf dip); conditions: Table B, 0.16 ppm
From the text: (§1) The expected action for a given combination of two active compounds can be calculated as follows, according to S. R. Colby, Weeds 15 (1967), 20-22:
(§2) If • X is the kill rate, expressed as a percentage of the untreated control, when employing active compound A at an application rate of m g/ha or in a concentration of m ppm, • Y is the kill rate, expressed as a percentage of the untreated control, when employing active compound B at an application rate of n g/ha or in a concentration of n ppm and • E is the kill rate, expressed as a percentage of the untreated control, when employing active compounds A and B at application rates of m and n g/ha or in a concentration of m and n ppm, then
(§3) If the actual insecticidal kill rate exceeds the calculated value, the action of the combination is superadditive, i.e. a synergistic effect is present. In this case, the actually observed kill rate must exceed the value calculated using the above formula for the expected kill rate (E).
Phaedon cochleariae Larvae Test
To produce a suitable preparation of active compound, 1 part by weight of active compound is mixed with the stated amounts of solvent and emulsifier, and the concentrate is diluted with emulsifier-containing water to the desired concentration. […]
After the desired period of time, the kill in % is determined. […] The kill rates determined are calculated using Colby's formula (see page 39).

[2] = system: Plutella xylostella, resistant strain; experiment: Plutella-xylostella test (resistant strain), cabbage leaf dip
From the text: as §1, §2, §3
Plutella-xylostella Test (Resistant Strain)
(§4) To produce a suitable preparation of active compound, 1 part by weight of active compound is mixed with the stated amounts of solvent and emulsifier, and the concentrate is diluted with emulsifier-containing water to the desired concentration.
Cabbage leaves (Brassica oleracea) are treated by being dipped into the preparation of active compound of the desired concentration and are populated with caterpillars of the diamond back moth (Plutella xylostella, resistant strain), while the leaves are still moist.
After the desired period of time, the kill in % is determined. 100% means that all caterpillars have been killed; 0% means that none of the caterpillars have been killed. The kill rates determined are calculated using Colby's formula (see page 39).

Spodoptera frugiperda = Spodoptera frugiperda test (cabbage leaf dip); conditions: Table D, 0.032 ppm
From the text: as §1, §2, §3
Spodoptera frugiperda Test […]
After the desired period of time, the kill in % is determined: 100% means that all caterpillars have been killed; 0% means that none of the caterpillars have been killed. The kill rates determined are calculated using Colby's formula (see page 39).

Myzus persicae = Myzus persicae test (cabbage leaf dip)
From the text: as §1, §2, §3, §4
Cabbage leaves (Brassica oleracea) which are heavily infested by the green peach aphid (Myzus persicae) are treated by being dipped into the preparation of active compound of the desired concentration.
After the desired period of time, the kill in % is determined. 100% means that all aphids have been killed; 0% means that none of the aphids have been killed. The kill rates determined are calculated using Colby's formula (see page 39).

SMILES: CC1(C)C(C=C(Cl)Cl)C1C(=O)OC(C#N)c1ccc(F)c(Oc2ccccc2)c1 (stereo not drawn) [(2-3) betacyfluthrin, betacyfluthrin]
- Kill rate in % after 3 d, found [1]: 15%
- Kill rate in % after 6 d, found ([2]; Table C1, 0.0064 ppm): 0%
- Kill rate in % after 6 d, found (Spodoptera frugiperda): 0%

SMILES: CC1(C)C(C=C(Br)Br)C1C(=O)OC(C#N)c1cccc(Oc2ccccc2)c1 (stereo not drawn) [(2-6) deltamethrin, deltamethrin]
- Kill rate in % after 6 d, found (Myzus persicae; Table A1, 0.16 ppm): 50%

SMILES: CC1(C)C(/C=C(\Cl)C(F)(F)F)C1C(=O)OC(C#N)c1cccc(Oc2ccccc2)c1 (stereo not drawn) [(2-12) lambda-cyhalothrin, lambda-cyhalothrin]
- Kill rate in % after 6 d, found (Myzus persicae; Table A2, 0.032 ppm): 0%
- Kill rate in % after 6 d, found ([2]; Table C2, 0.0064 ppm): 0%

SMILES: Cc1cc(Cl)cc(C(=O)NC(C)C)c1NC(=O)c1cc(C(F)(F)F)nn1-c1ncccc1Cl [Example I-1-9]
- Kill rate in % after 6 d, found (Myzus persicae; Table A1, 4 ppm): 15%
- Kill rate in % after 6 d, found (Myzus persicae; Table A2, 0.8 ppm): 0%
- Kill rate in % after 3 d, found [1]: 0%
- Kill rate in % after 6 d, found ([2]; Table C1, 0.0064 ppm): 0%
- Kill rate in % after 6 d, found ([2]; Table C2, 0.0064 ppm): 10%
- Kill rate in % after 6 d, found (Spodoptera frugiperda): 75%
